Reference: PubChem BioAssay AID449762 (Southern Research Specialized Biocontainment Screening …, 2010)
Inconclusive results are not listed.

Test system: M. tuberculosis H37Rv growth inhibition, 7H9 media
Assay: M. tuberculosis growth inhibition, HTS (AID 449762);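 further: bacterial growth assessed after seven days of incubation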
Conditions: for IC90: measured here: IC90 growth inhibition

SMILES | IC50 [µM] | IC90 [µM]
COC(=O)c1cc(/C=C/c2ccccc2)on1 | 16.9 | > 100
CCCCOc1ccc(-c2nnn(C(C)C(=O)OCC)n2)cc1 (centres undefined) | 0.75 | 5.42
C/C(=N\N=C(/N)SC1CC(=O)N(c2ccc(Cl)cc2)C1=O)c1cccs1 (centres undefined) | 33 | > 100
O=C(CSc1nc2ccccc2nc1N1CCOCC1)N1CCN(c2ccccc2)CC1 | 11.4 | 13.2
O=C(CSc1nnnn1C1CCCCC1)Nc1nc2c(s1)CCCC2 | 30.7 | 59.3
COc1ccc(Nc2nc(N)c([N+](=O)[O-])c(NC3CCCCC3)n2)cc1 | 9.76 | 18.8
CCOc1ccc(-c2cc(C(=O)NCCCn3ccnc3)c3cc(Br)ccc3n2)cc1 | 24.1 | 27.4
C[C@@H]1CN([C@H](C)CO)C(=O)c2cc(NC(=O)Nc3ccc(C(F)(F)F)cc3)ccc2O[C@H]1CN(C)S(=O)(=O)c1cccs1 | 22.6 | 25.9
Clc1ccc(SCc2cc(N3CCOCC3)nc(-c3ccccn3)n2)cc1 | 0.92 | 6.27
CC(C)C[C@H](NC(=O)c1nc[nH]c1C(=O)NC1CCN(C(=O)OC(C)(C)C)CC1)C(=O)OCc1ccccc1 | 22.4 | 25.4
CCOC(=O)c1ccc(-n2c(CCC(=O)O)ccc2-c2cccs2)cc1 | 9.13 | 14
O=c1[nH][nH]c(-c2ccccc2O)c1C(C[N+](=O)[O-])c1cccc(Cl)c1 (centres undefined) | 74.6 | > 100
CN1OC(COC(=O)c2ccc(Cl)cc2Cl)CC1c1ccccc1 (centres undefined) | 2.43 | 16.3
CCOC(=O)c1ccc(-c2c(-c3ccc4c(c3)OCO4)noc2C)cc1F | 33.3 | 54
Oc1ccccc1NCC(O)Cn1ccc2ccccc21 (centres undefined) | 5.37 | 8.32
Cc1nc2ccc(NC(=O)c3ccc([N+](=O)[O-])cc3[N+](=O)[O-])cc2s1 | 1.62 | 16.7
COC(=O)COc1ccc(-c2nn(C)c(=O)c3ccccc23)cc1 | 1.77 | 27.5
OCC1(Cc2cccc(Cl)c2)CCCN(Cc2ccc3cc(F)ccc3n2)C1 (centres undefined) | 45.8 | 52.1
COc1ccc(NC(=O)CSC2CCCCC2)cc1 | 35.2 | > 100
CCOc1ccc(OCCSc2ccc(S(=O)(=O)N3CCN(C)CC3)cn2)cc1 | 22.1 | 28.6
c1ccc(CN2CCC(Nc3nc(-c4ccccc4)nc4ccccc34)CC2)cc1 | 10.3 | 16.3
CN1CCN(CC(=O)N2CCn3c4c(c5cc(C6CCCCC6)ccc53)CCCC42)CC1 (centres undefined) | 21.7 | 23.6

SMILES | IC50 [µM] | IC90 [µM]
Cc1cc(Cl)ccc1OCCCC(=O)NO | 17.6 | > 100
CCCCCCSc1nsc(NC(=O)CC(C)C)n1 | – | > 100
O=C(COc1ccccc1)NNc1nc2ccccc2s1 | 48.4 | > 100
CC(C)(C)C1CCc2nc(NC(=O)Cc3cn4ccsc4n3)sc2C1 (centres undefined) | 15.5 | 39.6
Cc1nc(NC(=O)c2ccccc2)sc1C1(C)CC(c2ccc(OC(F)(F)F)cc2)=NO1 (centres undefined) | 24.6 | 41.1
CCC(=O)c1ccc(OCC(O)CN2CCN(c3cccc(C(F)(F)F)c3)CC2)cc1 (centres undefined) | 19.9 | 28
CCCCCCc1cc2cc(C(=O)NCc3ccccc3)c(=N)oc2cc1O | 3.45 | 5.73
COc1ccccc1NC(=O)Nc1nc(CC(=O)N2CCN(c3ccccc3F)CC2)cs1 | 41.7 | > 100
CN(C)C(=O)C1C2NC(=S)N(c3ccc(Cl)cc3)C1(C)Oc1ccc(Cl)cc12 (centres undefined) | 23.6 | 26.9
Cc1ccc(/C=C/C(=O)N2CC(C)CC(C)C2)o1 (centres undefined) | 8.06 | 22.1
COc1ccccc1/C=C/C(=O)Nc1ccc(S(=O)(=O)Nc2cc(C)on2)cc1 | 5.01 | 17.3
Cc1cc(C)cc(-n2c(C)c3c(C)nnc(C)c3c2C)c1 | 62.8 | 78.1
CCCNC(=O)NC(=O)COc1ccc2oc3ccccc3c2c1 | – | > 100
COc1cc(OC)cc(-c2cc3nc(C)c(CCC(=O)NC(C)CCc4ccco4)c(C)n3n2)c1 (centres undefined) | 44.3 | > 100
CCOc1[nH]n(-c2ccccc2)c(=O)c1C=Nc1ccc(OC)cc1 | 36.5 | > 100
COc1nn(-c2ccccc2)c(=O)c(Cl)c1Cl | 5.52 | 9.06
COc1ccc(NC(=O)CSC2=C(C#N)C(c3ccco3)C(C(=O)Nc3nc4ccccc4s3)=C(C)N2)cc1 (centres undefined) | 5.57 | 7.26
NC(=O)N=Nc1c2[nH]c3ccccc3nc-2c2ccccc12 | 4.36 | 7.08
CCN(CC)CCN(C(=O)c1ccc(S(=O)(=O)N2CCCC2)cc1)c1nc2cc(C)cc(C)c2s1 | 10.1 | 13.2
C#CCOCCOCCOCCNc1nc(N2CCN(C(=O)CCCCCCCCCCNC(=O)[C@H](CCCCN)n3cc(CCCC(=O)O)nn3)CC2)nc(N2CCN(C(=O)CCCCCCCCCCNC(=O)[C@H](CCCN=C(N)N)n3cc(C[C@@H](C)CC)nn3)CC2)n1 | 4.78 | 5.97
O=C(N/N=C\C=C\c1ccc([N+](=O)[O-])o1)c1cccs1 | 0.59 | 0.92
Cc1cc2c(cc1C)/C(=N/NC(=O)c1ccccn1)CCC2 | 7.91 | 23.2

SMILES | IC50 [µM] | IC90 [µM]
COc1ccc(N2C(=O)C(Cl)=C(Nc3ccccc3O)C2=O)cc1 | 14.2 | 25.7
Cc1ccc(C(=O)n2c(N)nc3ccccc32)cc1 | 43.8 | > 100
CN(C)c1nc(NCc2ccccc2)nc(N/N=C/c2ccc3c(c2)OCO3)n1 | 42.7 | > 100
NC(=O)c1ccc(N=Cc2ccc([N+](=O)[O-])s2)cc1 | 12.6 | 13.6
[O-][n+]1c2ccccc2c2n1CCN1CCOC21c1ccc(Cl)cc1 (centres undefined) | 26.1 | 68
CCOc1cc(/C=C\[N+](=O)[O-])ccc1OCC(=O)Nc1ccccc1C | 6.93 | 33.8
COC(=O)c1[nH]c2cc(OC)ccc2c1NC(=O)CN1CCN(c2cccc(C)c2)C(C)C1 (centres undefined) | 26.6 | 40.2
Cc1cc(Br)ccc1NC(=O)c1cnc(N2CCN(c3ccccn3)CC2)c2ccccc12 | 1.24 | 3.49
CC(C)c1ccc2c(c1)CCC1C(C)(CN)CCCC21C (centres undefined) | 15.7 | 25.6
Cn1c(N)c(C(=O)COC(=O)c2ccc([N+](=O)[O-])o2)c(=O)n(C)c1=O | 2.81 | 4.54
CCCOc1ccc(N2CC(C(=O)Nc3ccccn3)CC2=O)cc1 (centres undefined) | 16.3 | 59.1
Cc1ccc(C(=O)O/N=C(\N)c2ccc(Br)cc2)cc1C | 98.9 | > 100
c1ccc2nc(-c3ccc(-n4ccnc4)cc3)ccc2c1 | 23.5 | 25.9
Cc1ccc(C(=O)ONc2ccc(N=O)cc2)cc1 | 23.2 | 43.1
O=C1/C(=C\c2ccncc2)CCc2ccccc21 | 20.8 | 34.8
Cc1ccccc1C(=O)Nc1ccc(N(C)C)c2ccccc12 | 16.6 | > 100
O=C(/C=C/c1ccc(OCCCF)cc1)Nc1ccnc(-c2ccncc2)n1 | 37.5 | 68.8
CC1CCC(C(C)C)C(OC(=O)Cn2c(-c3ccc(F)cc3)[n+](C)c3ccccc32)C1 (centres undefined) | 9.08 | 13
CCOC(=O)c1cnc(SC2CCc3ccccc3C2=O)nc1N (centres undefined) | 70.8 | 88.7
CC(C)C1N=C(c2ccc3c(c2)OCO3)CC(c2ccccc2O)N1 (centres undefined) | 20.8 | 30.4
CCCCOC(=O)c1c(C)oc2ccc(NS(=O)(=O)c3ccc4c5c(cccc35)C(=O)N4)cc12 | 78.7 | > 100
CCc1cc(/C(Cc2ccccn2)=N\Nc2ccccc2)c(O)cc1O | 60.5 | 77.4

SMILES | IC50 [µM] | IC90 [µM]
Cc1ccc(NC(=O)c2cnc(SCC(=O)NCC3CCCO3)n(C)c2=O)cc1C (centres undefined) | 9.73 | 35.1
CCc1ccc(NC(=O)c2ccc(C3SCC(=O)N3CCc3ccccc3)cc2)cc1 (centres undefined) | 97.5 | > 100
COCCOC(=O)c1ccc(NC(=O)COc2ccc([N+](=O)[O-])cc2)cc1 | 83 | > 100
COc1ccc(N=c2cc(-c3ccc(O)cc3)oc3ccccc23)cc1 | 22.3 | 25.8
Cn1nc([N+](=O)[O-])nc1Sc1ccc(C(C)(C)C)cc1 | 6.13 | 7.62
CCCCCCCNC(=O)c1ccc(N2CCC3(CC2)OCCO3)c([N+](=O)[O-])c1 | 37.9 | 47.2
CCOC(=O)c1c(C)[nH]c(N=Nc2ccc(OC)cc2)c1C | 1.71 | 5.55
OCCCNc1cc(-c2ccnc(Nc3cccc(Cl)c3)n2)ccn1 | 20.8 | 45
S=C(NCCc1ccccc1)NN=C1CCCCCC1 | 23.1 | 26.6
O=C(CSC1=NC(=O)C(c2ccccc2)C(=O)N1)Nc1ccccc1Cl (centres undefined) | 1.86 | 6.58
COc1cc(N)c(Cl)cc1C(=O)N[C@H]1CCN(CCCOc2ccc(F)cc2)C[C@H]1OC | 43.8 | 55.2
CCCN(CCC)CCNC(=O)c1cc2c(-c3ccc(Cl)cc3)nn(C)c2s1 | 19.5 | 27.7
CCc1nc2ccccc2c(C(=O)Nc2cc(C)ccc2C)c1C | 13 | > 100
Cc1cc(C)nc(-n2nc(C)cc2NC(=O)CN2CCC(C)CC2)n1 | 6.86 | 16.9
CCCc1ccc(C2=Nn3c(nnc3C(C)C)SC2)cc1 | 18.7 | 29.7
CCCCOC(=O)CSc1nnc(-c2ccc(Cl)cc2Cl)o1 | < 0.2 | 1.85
COc1ccc(C2CC2/C(C)=N/OC(=O)c2ccc(F)cc2)cc1 (centres undefined) | 13.7 | 51.6
Cc1cc(C=C2C(=O)NC(=S)NC2=O)c(C)n1C1CCCC1 | 10.9 | 47.2
CCCSc1nn2c(=O)c3ccccc3nc2s1 | 8.34 | 25.2
O=c1c2c(-c3ccccc3)csc2ncn1/N=C/c1ccc(O)c([N+](=O)[O-])c1 | 13.5 | 52.9
Cc1cc(C)cc(NC(=O)c2ccc(Cn3nc(C)c(Cl)c3C)o2)c1 | 30.8 | 41.9
O=C(NCc1nnnn1-c1ccc(F)cc1)c1ccc([N+](=O)[O-])o1 | 16.5 | 74.1
